This data set can be described thus: xn = mol fraction of the nth substance listed. The following applies: 298.15 K, 100 kPa.

Drawing on a compilation of properties of binary mixtures (doi:10.1016/j.molliq.2021.117163), this text covers viscosity for two molecules.

Take `CCCC[n+]1ccn(C)c1.F[B-](F)(F)F` + CC1COC(=O)O1: the viscosity (commonly the internal friction of a fluid under shear) (x1 = 1) came out at 107.2 mPa·s.
As to `CC1COC(=O)O1` (stereo unspecified) + CCCC[n+]1ccn(C)c1.F[B-](F)(F)F, the viscosity is given as 2.7 mPa·s (x2 = 0); 3.6 mPa·s (x2 = 0.05); 4.4 mPa·s (x2 = 0.1); 10 mPa·s (x2 = 0.3); 15 mPa·s (x2 = 0.4); 22 mPa·s (x2 = 0.5). Besides, the viscosity by setting is: (x2 = 0.6) 31.4 mPa·s; (x2 = 0.7) 44.5 mPa·s; (x2 = 0.8) 63.5 mPa·s; (x2 = 0.9) 81.3 mPa·s.
